US20230263792A1, “USE OF 2,3,5-SUBSTITUTED THIOPHENE COMPOUND FOR PREVENTING, ALLEVIATION, OR TREATING MASTOCYTOSIS” (PHAROS IBIO CO., LTD, priority 2020, published 2023)

Experiments:
[1] = system: c-kit D816V mutant Ba/F3 cell line; experiment: Cell cycle FACS assay, c-kit D816V Ba/F3; format: cell-based; settings: 1 μM, 24 hours, FIGS. 4 and 5
Protocol: The c-kit D816V mutant Ba/F3 cell line was treated with 1 μM of PHI-101, and then the SubG1/GO-1 population was analyzed by cell cycle FACS assay.
Specifically, the c-kit D816V mutant Ba/F3 cell line was adjusted to a concentration of 1×10^6 cells/ml and treated with each of PHI-101 and the control compound sunitinib at a concentration of 1 μM for 24 hours. Thereafter, the medium was removed, and the c-kit D816V mutant Ba/F3 cell line was fixed in 70% ethanol at 4° C. for 24 hours, and then incubated in a PBS buffer solution containing 40 μg/ml of propidium iodide (PI) and 100 μg/ml of RNase for 30 minutes to completely stain the total DNA. Cell cycle analysis of the stained cells was performed using a flow cytometer (FACS-C6, BD). The proportion of cells in G0/G1 phase, S phase and G2/M phase was measured, and based on the measurement results, the SubG1/G0-1 population was determined.

HMC-1.2 cell line = experiment: Annexin V-PI FACS apoptosis analysis, HMC-1.2; format: cell-based; settings: HMC-1.2, 0.1 and 1 μM, FIG. 7
Protocol: Specifically, the c-kit D816V mutant Ba/F3 cell line was adjusted to a concentration of 1×10^6 cells/ml and treated with each of PHI-101 at concentrations of 0.1, 1 and 10 μM and the control compound sunitinib at concentrations of 1 and 10 μM for 24 hours. Thereafter, the medium was removed and the cells were washed once with 1 ml PBS. The PBS was removed by centrifugation at 1,000 rpm for 5 minutes. The cells were dissolved in 100 μl of PBS containing Ca^2+ and Mg^2+ and allowed to react with 5 μl of Annexin V for 20 minutes. After completion of the reaction, 400 μl of PBS containing Ca^2+ and Mg^2+ was added, and 5 μl of propidium iodide (PI) was added, and then the degree of apoptotic cell death was analyzed by FACS (fluorescence activated cell sorter) assay using a flow cytometer (FACS-C6, BD).
Specifically, the apoptotic effect of PHI-101 against the HMC-1.2 cell line was analyzed in the same manner as in Example 1-3, except that the HMC-1.2 cell line was treated with each of the control compounds at a concentration of 1 μM and PHI-101 at concentrations of 0.1 and 1 μM.

[2] = system: inflammatory response caused by mastocytosis (HMC-1.2 mouse model); experiment: Spleen/body weight ratio in mastocytosis mouse model (inflammatory response); format: in vivo, NOD SCID female mice
Protocol: As mice, 6-8-week-old NOD SCID female mice (18 to 22 g) (GemPharmatech Co., Ltd.) were prepared. Mice were acclimatized for 7 days before use in the experiment, and mice with abnormal health were excluded from the experiment. Mice were bred in a cage (300×180×150 mm) at a 22±3° C. and a relative humidity of 40% to 70% with a 12-hr light/12-hr dark cycle. Mice were allowed access to sterilized dry granular food (Beijing Keaoxieli Feed Co., Ltd., Beijing, China) and water ad libitum for the entire experimental period except for the period specified in the protocol.
50 ml of HMC-1.2 cells suspension-cultured in a 75T flask were placed in a conical tube and centrifuged at 1,200 rpm for 2 minutes, centrifuged with DPBS (Dulbecco's Phosphate-Buffered Saline, Welgene) at 1,200 rpm for 2 minutes, washed, and then suspended in RPMI1640 (Welgene) without antibiotics and fetal bovine serum (FBS). Then, the cells were stained with trypan blue, counted with a hemocytometer, and then HMC-1.2 cells (1×10^6) in a mixture of 0.1 ml L-15 and Matrigel (BD, cat. No. 356234) (1:1) were subcutaneously injected into the right flanks of mice anesthetized by intraperitoneal administration of Avertin (250 mg/kg), thus inducing tumors.
Thereafter, when the average tumor volume reached 150 to 200 mm^3, 4 mice were assigned to each group so that the average tumor volume at each group and treatment time was the same between the groups. Then, each of imatinib at a dose of 90 mg/kg, sunitinib at doses of 20 and 40 mg/kg, and PHI-101 at doses of 7, 20, 40 and 80 mg/kg was administered orally to the mice once daily for 3 weeks. For oral administration, each compound was dissolved in 5% 1-methyl-2-pyrrolidone and then completely mixed in 15% Kolliphor, 30% PEG E400 HS15 and 50% 0.05M citric acid.
Specifically, 3 weeks after administering each drug to the mastocytosis mouse model of Example 3-1, the mice were sacrificed, the body weight and spleen weight were measured using a digital scale, and then the spleen/body weight ratio was calculated.

[3] = 7 mg/kg oral once daily for 3 weeks
[4] = 20 mg/kg oral once daily for 3 weeks
[5] = 40 mg/kg oral once daily for 3 weeks
[6] = 80 mg/kg oral once daily for 3 weeks

In the case of `NC(=O)Nc1cc(C#Cc2cccc(F)c2)sc1C(=O)N[C@H]1CCCNC1` [PHI-101], the “SubG1/G0-1 population (cell cycle progression)” value [1] is reported as “SubG1/G0-1 population was increased”, the “apoptosis induction (Annexin V-PI FACS)” value (HMC-1.2 cell line) is reported as “strongly induced apoptosis even at a concentration of 1 μM” and the “Spleen/body weight ratio % of control” value [2, 3] is reported as 105.0%. The “Spleen/body weight ratio Inhibition (%)” value [2, 3] was −5%, the “Spleen/body weight ratio % of control” value [2, 4] was 95.0% and the “Spleen/body weight ratio Inhibition (%)” value [2, 4] was 5%. The “Spleen/body weight ratio % of control” value [2, 5] was 55.7%, the “Spleen/body weight ratio Inhibition (%)” value [2, 5] was 44.3% and the “Spleen/body weight ratio % of control” value [2, 6] was 46.3%. The “Spleen/body weight ratio Inhibition (%)” value [2, 6] was 53.7% and the “spleen/body weight ratio compared to control group” value ([2]; 7, 20, 40 and 80 mg/kg, FIGS. 13 and 14) was “decreased the spleen/body weight ratio in a concentration-dependent manner”.
